According to the NIST ThermoML archive (doi:10.1016/j.jct.2006.01.008):

Test: mn = molality of the nth substance listed, in mol/kg
Conditions: Liquid

O=[N+]([O-])[O-].[Li+] [lithium nitrate] + CO
Conditions	mass density [kg/m3]
298.15 K, 124 kPa, m1 = 0.1551	794.38
298.15 K, 125 kPa, m1 = 0.2943	800.98
298.15 K, 254 kPa, m1 = 0.8904	826.51
298.15 K, 4856 kPa, m1 = 0.1551	798.86
298.15 K, 5035 kPa, m1 = 0.2943	805.54
298.15 K, 5745 kPa, m1 = 0.8904	831.27
298.15 K, 10235 kPa, m1 = 0.2943	810.19
298.15 K, 10235 kPa, m1 = 0.8904	835.02
298.15 K, 11542 kPa, m1 = 0.1551	804.92
298.15 K, 15247 kPa, m1 = 0.2943	814.48
298.15 K, 15625 kPa, m1 = 0.8904	839.35
298.15 K, 16024 kPa, m1 = 0.1551	808.79
298.15 K, 19745 kPa, m1 = 0.1551	811.89
298.15 K, 20056 kPa, m1 = 0.2943	818.43
298.15 K, 20856 kPa, m1 = 0.8904	843.37
298.15 K, 25158 kPa, m1 = 0.2943	822.44
298.15 K, 25656 kPa, m1 = 0.8904	846.91
298.15 K, 25856 kPa, m1 = 0.1551	816.76
298.15 K, 30142 kPa, m1 = 0.1551	820.02
298.15 K, 30235 kPa, m1 = 0.2943	826.24
298.15 K, 30254 kPa, m1 = 0.8904	850.16
298.15 K, 35626 kPa, m1 = 0.8904	853.78
298.15 K, 35751 kPa, m1 = 0.2943	830.16
298.15 K, 35785 kPa, m1 = 0.1551	824.09
298.15 K, 39875 kPa, m1 = 0.2943	832.95
298.15 K, 39897 kPa, m1 = 0.1551	826.91
298.15 K, 39957 kPa, m1 = 0.8904	856.57
298.27 K, 205 kPa, m1 = 3.614	928.48
298.27 K, 5001 kPa, m1 = 3.614	931.92
298.27 K, 10011 kPa, m1 = 3.614	935.38
298.27 K, 15005 kPa, m1 = 3.614	938.69
298.27 K, 19984 kPa, m1 = 3.614	941.89
298.27 K, 25008 kPa, m1 = 3.614	945.02
298.27 K, 30003 kPa, m1 = 3.614	948.03
298.27 K, 35001 kPa, m1 = 3.614	950.96
298.27 K, 40010 kPa, m1 = 3.614	953.79
298.28 K, 189 kPa, m1 = 1.803	863.5
298.28 K, 205 kPa, m1 = 0.5393	811.38
298.28 K, 4985 kPa, m1 = 0.5393	815.76
298.28 K, 4986 kPa, m1 = 1.803	867.42
298.28 K, 9983 kPa, m1 = 1.803	871.31
298.28 K, 9995 kPa, m1 = 0.5393	820.13
298.28 K, 14986 kPa, m1 = 1.803	875.06
298.28 K, 15005 kPa, m1 = 0.5393	824.3
298.28 K, 19989 kPa, m1 = 1.803	878.65
298.28 K, 19996 kPa, m1 = 0.5393	828.26
298.28 K, 24989 kPa, m1 = 1.803	882.11
298.28 K, 24994 kPa, m1 = 0.5393	832.06
298.28 K, 29989 kPa, m1 = 1.803	885.44
298.28 K, 29991 kPa, m1 = 0.5393	835.71
298.28 K, 34990 kPa, m1 = 1.803	888.67
298.28 K, 34996 kPa, m1 = 0.5393	839.23
298.28 K, 39995 kPa, m1 = 0.5393	842.62
298.28 K, 39997 kPa, m1 = 1.803	891.8
323.15 K, 215 kPa, m1 = 0.8904	804.21
323.15 K, 321 kPa, m1 = 0.2943	777.56
323.15 K, 412 kPa, m1 = 0.1551	770.76
323.15 K, 5026 kPa, m1 = 0.8904	809.05
323.15 K, 5087 kPa, m1 = 0.2943	782.63
323.15 K, 5784 kPa, m1 = 0.1551	776.58
323.15 K, 9859 kPa, m1 = 0.1551	780.81
323.15 K, 10214 kPa, m1 = 0.8904	814.03
323.15 K, 10862 kPa, m1 = 0.2943	788.49
323.15 K, 15038 kPa, m1 = 0.2943	792.54
323.15 K, 15864 kPa, m1 = 0.8904	819.19
323.15 K, 16173 kPa, m1 = 0.1551	787.05
323.15 K, 19786 kPa, m1 = 0.1551	790.45
323.15 K, 20247 kPa, m1 = 0.8904	823
323.15 K, 20742 kPa, m1 = 0.2943	797.81
323.15 K, 25168 kPa, m1 = 0.2943	801.7
323.15 K, 25632 kPa, m1 = 0.8904	827.45
323.15 K, 26297 kPa, m1 = 0.1551	796.26
323.15 K, 30058 kPa, m1 = 0.8904	830.92
323.15 K, 30685 kPa, m1 = 0.2943	806.29
323.15 K, 31035 kPa, m1 = 0.1551	800.23
323.15 K, 35027 kPa, m1 = 0.2943	809.7
323.15 K, 35214 kPa, m1 = 0.8904	834.74
323.15 K, 35748 kPa, m1 = 0.1551	803.97
323.15 K, 39867 kPa, m1 = 0.1551	807.06
323.15 K, 39867 kPa, m1 = 0.8904	837.98
323.15 K, 40002 kPa, m1 = 0.2943	813.4
323.23 K, 206 kPa, m1 = 3.614	908.05
323.23 K, 211 kPa, m1 = 0.5393	788.49
323.23 K, 234 kPa, m1 = 1.803	842.01
323.23 K, 4982 kPa, m1 = 3.614	911.88
323.23 K, 4988 kPa, m1 = 1.803	846.4
323.23 K, 4989 kPa, m1 = 0.5393	793.5
323.23 K, 9987 kPa, m1 = 3.614	915.71
323.23 K, 9991 kPa, m1 = 0.5393	798.45
323.23 K, 10005 kPa, m1 = 1.803	850.8
323.23 K, 14993 kPa, m1 = 3.614	919.41
323.23 K, 14999 kPa, m1 = 0.5393	803.13
323.23 K, 15005 kPa, m1 = 1.803	854.96
323.23 K, 19987 kPa, m1 = 3.614	922.95
323.23 K, 19992 kPa, m1 = 1.803	858.94
323.23 K, 19999 kPa, m1 = 0.5393	807.57
323.23 K, 24991 kPa, m1 = 3.614	926.36
323.23 K, 24995 kPa, m1 = 1.803	862.77
323.23 K, 24997 kPa, m1 = 0.5393	811.8
323.23 K, 29993 kPa, m1 = 0.5393	815.84
323.23 K, 29998 kPa, m1 = 3.614	929.67
323.23 K, 30014 kPa, m1 = 1.803	866.46
323.23 K, 34988 kPa, m1 = 0.5393	819.71
323.23 K, 34989 kPa, m1 = 3.614	932.86
323.23 K, 34999 kPa, m1 = 1.803	869.98
323.23 K, 39993 kPa, m1 = 3.614	935.96
323.23 K, 39995 kPa, m1 = 0.5393	823.45
323.23 K, 39997 kPa, m1 = 1.803	873.39
348.15 K, 381 kPa, m1 = 0.1551	746.07
348.15 K, 409 kPa, m1 = 0.8904	781.31
348.15 K, 425 kPa, m1 = 0.2943	753.31
348.15 K, 5068 kPa, m1 = 0.1551	751.95
348.15 K, 5124 kPa, m1 = 0.2943	759.07
348.15 K, 5124 kPa, m1 = 0.8904	786.59
348.15 K, 10572 kPa, m1 = 0.2943	765.41
348.15 K, 10865 kPa, m1 = 0.8904	792.73
348.15 K, 10875 kPa, m1 = 0.1551	758.86
348.15 K, 15038 kPa, m1 = 0.1551	763.56
348.15 K, 15324 kPa, m1 = 0.2943	770.66
348.15 K, 15326 kPa, m1 = 0.8904	797.27
348.15 K, 19875 kPa, m1 = 0.1551	768.75
348.15 K, 20125 kPa, m1 = 0.2943	775.7
348.15 K, 20875 kPa, m1 = 0.8904	802.64
348.15 K, 25412 kPa, m1 = 0.8904	806.8
348.15 K, 25632 kPa, m1 = 0.2943	781.14
348.15 K, 26038 kPa, m1 = 0.1551	774.93
348.15 K, 30057 kPa, m1 = 0.2943	785.25
348.15 K, 30587 kPa, m1 = 0.8904	811.29
348.15 K, 31412 kPa, m1 = 0.1551	779.95
348.15 K, 35231 kPa, m1 = 0.8904	815.1
348.15 K, 35748 kPa, m1 = 0.1551	783.73
348.15 K, 35942 kPa, m1 = 0.2943	790.36
348.15 K, 39511 kPa, m1 = 0.2943	793.25
348.15 K, 39784 kPa, m1 = 0.1551	787.04
348.15 K, 40005 kPa, m1 = 0.8904	818.78
